According to PubChem BioAssay AID1963846 (Molecular Pharmacology Branch, DTP, NCI, 2024):
“And” between values parts separate entries of the source, which are not always exact repeats. Identical values can stand only once.

Tested on: 454973-116-R2-J3-PDC complex spheroid viability
Test: Anticancer human tumor 454973-116-R2-J3-PDC patient-derived pancreatic carcinoma cell line growth inhibition [POLQ]
Conditions: for viability, T/C: stronger effect = lower value; active = viability on the fitted dose curve at most 10% of control; inactive = the rest
Experimental: Multicellular complex tumor spheroid response to Polymerase (POL) inhibitors (novobiocin, ART-558, RP6685) in combination with a variety of drugs and investigational agents in selected tumor cell lines
The POL inhibitors (novobiocin, ART-558, and RP6685) were evaluated both individually and in combination with standard of care and investigational anticancer small molecules within a complex spheroid model of solid tumors. . Complex spheroids include a stromal component modeled by human endothelial cells (HUVEC) and fibroblasts modeled by human mesenchymal stem cells (MSCs). The concentration ranges selected for each drug and investigational agent were based upon clinically achievable concentrations if the clinical Cmax of the agent was known.
Compounds. The drugs and investigational agents: novobiocin (NSC847541), ART-558 (NSC835418), RP-6685 (NSC848927), peposertib (NSC802822), ceralasertib (NSC780249), elimusertib (NSC800525), camonsertib (NSC841442), AZD-1390 (NSC803789), olaparib (NSC753686), talazoparib (NSC767125), rucaparib (NSC756644), sotorasib (NSC818433), MRTX-1133 (NSC836407), SN-38 (NSC673596), topotecan (NSC609699), epotoside (NSC141540), doxorubicin (NSC123127), gemcitabine (NSC613327), 5-fluorouracil (NSC19893), paclitaxel (NSC125973), vemurafenib (NSC761431), MSA-2 (NSC828583), SN-011 (NSC837082), adavosertib (NSC754352), prexasertib (NSC758257), carboplatin (NSC241240) and oxaliplatin (NSC266046), were obtained from the National Cancer Institute (NCI) Developmental Therapeutics Program Chemical Repository (21). The FDA-approved anticancer drug set is available from the Developmental Therapeutics Program at https://dtp.cancer.gov/organization/dscb/obtaining/. […] The stock solutions were prepared in dimethyl sulfoxide (DMSO, Sigma-Aldrich, St. Louis, MO, cat. D2650), except for the platinum compounds which were prepared in saline (Quality Biological, Gaithersburg, MD, cat. 114-055-101), at 800-fold the tested concentration and stored at -70 degrees C prior to their use. All drugs and investigational agents were tested over a range starting from a high concentration at or near the clinical Cmax and decreasing in half-log increments. If the clinical Cmax for an agent had not been determined, the highest concentration tested was 10 microM, except for SN-38, which was tested at a high concentration of 1 microM.
Cell Culture. All cells were maintained in an incubator at 37 degrees C and 5% CO2 with 95% humidity. The PDC lines were cultured according to standard operating procedures established by the NCI PDMR (https://pdmr.cancer.gov). Table 3 of the manuscript, lists the cell lines along with the number of the three cell types plated to form the mct-spheroids and media for tumor cell growth. After thawing, all PDC lines, except 997537-175-T-J1-PDC and 415267-285-R-J2-PDC, were cultured in Matrigel-coated flasks prepared with a working solution of 1X Ham's F-12 nutrient mix, without supplementation (Thermo Fisher Scientific, cat. 11765054), 100 U/mL penicillin-streptomycin (Thermo Fisher Scientific, cat. 15140122), and 2.5% Matrigel (Corning Inc., Corning, NY, cat. 354248) for the first three passages. The two PDC lines 997537-175-T-J1-PDC and 415267-285-R-J2-PDC were cultured on uncoated flasks. The 857933-349-R-J2-PDC line was cultured in 6C/Colon 1B media containing advanced DMEM/F-12 (Thermo Fisher Scientific, cat. 12634028), 10 mM HEPES (Thermo Fisher Scientific, cat. 15630080), 1X GlutaMAX supplement (Thermo Fisher Scientific, cat. 35050061), 0.1 mg/mL primocin (InvivoGen, San Diego, CA, cat. ant-pm-2), 10% defined fetal bovine serum, heat inactivated (HyClone Laboratories Inc., Logan, UT, cat. SH30070.03HI), 50% L-WRN conditioned media (ATCC, cat. CRL-3276), 1.25 mM N-Acetyl-L-cysteine (Sigma-Aldrich, cat. A9165), 10 mM nicotinamide (Sigma-Aldrich, cat. N0636), 1X B-27 supplement (Thermo Fisher Scientific, cat. 17504044), 1X N-2 supplement (Thermo Fisher Scientific, cat. […]

[1] = curve of first compound, second compound 0.0316 µM
[2] = curve of first compound, second compound 0.1 µM
[3] = curve of first compound, second compound 0.316 µM
[4] = curve of first compound, second compound 1 µM
[5] = curve of first compound, second compound 3.16 µM
[6] = curve of first compound, second compound 10 µM
[7] = second compound 0.0316 µM, first compound 0.0316 µM
[8] = second compound 0.0316 µM, first compound 0.1 µM
[9] = second compound 0.1 µM, first compound 0.0316 µM
[10] = second compound 0.1 µM, first compound 0.1 µM
[11] = second compound 0.316 µM, first compound 0.0316 µM
[12] = second compound 0.316 µM, first compound 0.1 µM
[13] = second compound 1 µM, first compound 0.0316 µM
[14] = second compound 1 µM, first compound 0.1 µM
[15] = second compound 3.16 µM, first compound 0.0316 µM
[16] = second compound 3.16 µM, first compound 0.1 µM
[17] = second compound 10 µM, first compound 0.0316 µM
[18] = second compound 10 µM, first compound 0.1 µM
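Note: spheroids exposed to drugs for seven days before measurement.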
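Throughout, for viability, T/C: percent viability relative to DMSO vehicle control wells taken as 100%.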

CNCc1ccc(-c2[nH]c3cc(F)cc4c3c2CCNC4=O)cc1 + Nc1ccc(C#CCN(C(=O)Cc2ncc(C(F)(F)F)cc2C(F)(F)F)c2ccc(F)cc2)nn1
> 10000 nM: IC50 [1] | IC50 [2] | IC50 [3] | IC50 [4] | IC50 [5] | IC50 [6]
inactive: viability, T/C [7] 114% | viability, T/C [8] 101% | viability, T/C (second compound 0.0316 µM, first compound 0.316 µM) 109% | viability, T/C (second compound 0.0316 µM, first compound 1 µM) 94.5% | viability, T/C (second compound 0.0316 µM, first compound 3.16 µM) 104% | viability, T/C (second compound 0.0316 µM, first compound 10 µM) 91.9% | viability, T/C [9] 103% | viability, T/C [10] 96.2% | viability, T/C (second compound 0.1 µM, first compound 0.316 µM) 95.8% | viability, T/C (second compound 0.1 µM, first compound 1 µM) 90.3% | viability, T/C (second compound 0.1 µM, first compound 3.16 µM) 98.2% | viability, T/C (second compound 0.1 µM, first compound 10 µM) 95.4% | viability, T/C [11] 105% | viability, T/C [12] 100% | viability, T/C (second compound 0.316 µM, first compound 0.316 µM) 105% | viability, T/C (second compound 0.316 µM, first compound 1 µM) 95.6% | viability, T/C (second compound 0.316 µM, first compound 3.16 µM) 101% | viability, T/C (second compound 0.316 µM, first compound 10 µM) 95.9% | viability, T/C [13] 110% | viability, T/C [14] 106% | viability, T/C (second compound 1 µM, first compound 0.316 µM) 106% | viability, T/C (second compound 1 µM, first compound 1 µM) 108% | viability, T/C (second compound 1 µM, first compound 3.16 µM) 110% | viability, T/C (second compound 1 µM, first compound 10 µM) 91% | viability, T/C [15] 113% | viability, T/C [16] 115% | viability, T/C (second compound 3.16 µM, first compound 0.316 µM) 108% | viability, T/C (second compound 3.16 µM, first compound 1 µM) 98.7% | viability, T/C (second compound 3.16 µM, first compound 3.16 µM) 121% | viability, T/C (second compound 3.16 µM, first compound 10 µM) 90.6% | viability, T/C [17] 116% | viability, T/C [18] 102% | viability, T/C (second compound 10 µM, first compound 0.316 µM) 112% | viability, T/C (second compound 10 µM, first compound 1 µM) 117% | viability, T/C (second compound 10 µM, first compound 3.16 µM) 119% | viability, T/C (second compound 10 µM, first compound 10 µM) 85%

C=CC(=O)N1CCN(c2nc(=O)n(-c3c(C)ccnc3C(C)C)c3nc(-c4c(O)cccc4F)c(F)cc23)C(C)C1 (stereo unspecified)
inactive: viability, T/C (compound 0.0316 µM) 109% (2×) and 106% | viability, T/C (compound 0.1 µM) 97% and 98.6% and 100% | viability, T/C (compound 0.316 µM) 105% and 112% and 106% | viability, T/C (compound 1 µM) 104% and 113% and 107% | viability, T/C (compound 3.16 µM) 108% and 104% and 114% | viability, T/C (compound 10 µM) 107% and 113% and 112%
> 10000 nM: IC50 (curve of compound)

CC[C@@]1(O)C(=O)OCc2c1cc1n(c2=O)Cc2cc3c(CN(C)C)c(O)ccc3nc2-1 + COC1C(OC(N)=O)C(O)C(Oc2ccc3c(O)c(NC(=O)c4ccc(O)c(CC=C(C)C)c4)c(=O)oc3c2C)OC1(C)C
18.3 nM: IC50 [5]
18.4 nM: IC50 [3]
inactive: viability, T/C (second compound 0.0316 µM, first compound 0.000316 µM) 113% | viability, T/C (second compound 0.0316 µM, first compound 0.001 µM) 106% | viability, T/C (second compound 0.0316 µM, first compound 0.00316 µM) 105% | viability, T/C (second compound 0.0316 µM, first compound 0.01 µM) 86.8% | viability, T/C [7] 25.5% | viability, T/C [8] 14.9% | viability, T/C (second compound 0.1 µM, first compound 0.000316 µM) 106% | viability, T/C (second compound 0.1 µM, first compound 0.001 µM) 106% | viability, T/C (second compound 0.1 µM, first compound 0.00316 µM) 103% | viability, T/C (second compound 0.1 µM, first compound 0.01 µM) 82.6% | viability, T/C [9] 17.1% | viability, T/C [10] 16.3% | viability, T/C (second compound 0.316 µM, first compound 0.000316 µM) 109% | viability, T/C (second compound 0.316 µM, first compound 0.001 µM) 100% | viability, T/C (second compound 0.316 µM, first compound 0.00316 µM) 108% | viability, T/C (second compound 0.316 µM, first compound 0.01 µM) 88.9% | viability, T/C [11] 15.8% | viability, T/C [12] 13.8% | viability, T/C (second compound 1 µM, first compound 0.000316 µM) 113% | viability, T/C (second compound 1 µM, first compound 0.001 µM) 101% | viability, T/C (second compound 1 µM, first compound 0.00316 µM) 108% | viability, T/C (second compound 1 µM, first compound 0.01 µM) 91.1% | viability, T/C [13] 15.8% | viability, T/C [14] 18.1% | viability, T/C (second compound 3.16 µM, first compound 0.000316 µM) 110% | viability, T/C (second compound 3.16 µM, first compound 0.001 µM) 113% | viability, T/C (second compound 3.16 µM, first compound 0.00316 µM) 107% | viability, T/C (second compound 3.16 µM, first compound 0.01 µM) 79.6% | viability, T/C [15] 22.8% | viability, T/C [16] 19% | viability, T/C (second compound 10 µM, first compound 0.000316 µM) 109% | viability, T/C (second compound 10 µM, first compound 0.001 µM) 104% | viability, T/C (second compound 10 µM, first compound 0.00316 µM) 99.9% | viability, T/C (second compound 10 µM, first compound 0.01 µM) 76.5% | viability, T/C [17] 21.4% | viability, T/C [18] 20.3%
18.9 nM: IC50 [4]
20 nM: IC50 [1]
17.5 nM: IC50 [6]
17.8 nM: IC50 [2]
